Results reported in ChEMBL document CHEMBL1201862, “PubChem BioAssay data set” (2004).
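Five concentrations, 48 hours, 96-well plates. GI50 is the concentration that inhibits growth by half.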 Activity calls are given as the source filed them. Cut-off read from the data, not from the text of the source: active = GI50 up to about 1.1 µM and inactive = higher.

Legend:
Test in all cases: NCI tumour cell line growth inhibition, 48 h
[1] = system: SK-MEL-5
[2] = system: HOP-92
[3] = system: NCI-H226
[4] = system: M14
[5] = system: A498
[6] = system: SNB-75
[7] = system: NCI-H23
[8] = system: SW-620
[9] = system: HT-29
[10] = system: SR
[11] = system: U-251
[12] = system: OVCAR-8
[13] = system: KM12
[14] = system: OVCAR-3
[15] = system: SK-MEL-2
[16] = system: SK-MEL-28
[17] = system: HL-60
[18] = system: RXF 393

Measured: GI50

Cc1cc(C)nc(Sc2c([N+](=O)[O-])ncn2C)n1
inactive: [1] > 100 µM | [2] > 100 µM | [3] > 100 µM | [4] > 100 µM | [5] > 100 µM | [6] > 100 µM | [7] > 100 µM | [8] > 100 µM | [9] > 100 µM | [10] > 100 µM | [11] > 100 µM | [12] > 100 µM | [13] > 100 µM | [14] > 100 µM | [15] > 100 µM | [16] > 100 µM

COC1C2C=CC(C2)[C@H]1[N+](=O)[O-] (some centres undefined)
inactive: [1] > 100 µM | [17] 28.8 µM | [2] > 100 µM | [3] > 100 µM | [4] > 100 µM | [5] > 100 µM | [18] > 100 µM | [6] > 100 µM | [7] > 100 µM | [8] 95.7 µM | [9] > 100 µM | [10] > 100 µM | [11] > 100 µM | [12] 56.8 µM | [13] > 100 µM | [14] > 100 µM | [15] > 100 µM

O=C(NS(=O)(=O)c1ccccc1)C(Cc1ccccc1)C(Cc1ccccc1)C(=O)NS(=O)(=O)c1ccccc1 (centres undefined)
inactive: [1] > 100 µM | [17] > 100 µM | [2] > 100 µM | [3] 62.4 µM | [4] > 100 µM | [5] > 100 µM | [18] > 100 µM | [6] > 100 µM | [7] > 100 µM | [8] > 100 µM | [9] > 100 µM | [10] > 100 µM | [11] > 100 µM | [12] > 100 µM | [13] > 100 µM | [14] > 100 µM | [15] > 100 µM | [16] > 100 µM

CC(=O)CCn1ncc(Cl)c(Cl)c1=O
inactive: [1] 19.2 µM | [17] 8.39 µM | [2] 17 µM | [3] 16.7 µM | [4] 15.7 µM | [5] 24.9 µM | [18] 17.3 µM | [6] 34.4 µM | [7] 15 µM | [8] 19 µM | [9] 14.1 µM | [10] 9.59 µM | [12] 23.2 µM | [13] 17.7 µM | [14] 13.7 µM | [15] 14.2 µM | [16] 13.8 µM

CCC1C(=O)OCc2c1cc1n(c2=O)CCC12OCCO2 (centres undefined)
inactive: [1] > 100 µM | [17] > 100 µM | [2] > 100 µM | [3] > 100 µM | [4] > 100 µM | [5] > 100 µM | [6] > 100 µM | [7] > 100 µM | [8] > 100 µM | [9] > 100 µM | [10] > 100 µM | [11] > 100 µM | [12] > 100 µM | [13] > 100 µM | [15] > 100 µM | [16] > 100 µM

O=S1(=O)c2ccccc2N(O)C2=NCCN21
inactive: [1] > 100 µM | [17] > 100 µM | [2] > 100 µM | [3] 25.9 µM | [4] > 100 µM | [5] 28.6 µM | [18] > 100 µM | [6] > 100 µM | [7] > 100 µM | [8] > 100 µM | [9] > 100 µM | [10] > 100 µM | [11] > 100 µM | [12] > 100 µM | [13] > 100 µM | [14] > 100 µM | [15] > 100 µM | [16] > 100 µM

O=[N+]([O-])c1cc(I)cc(/C=N/NS(=O)(=O)c2ccc(F)cc2)c1O
inactive: [1] 22.5 µM | [17] 28.4 µM | [2] 18.3 µM | [4] 27.5 µM | [5] 36.1 µM | [18] 27 µM | [6] 25 µM | [7] 20 µM | [8] 32.4 µM | [9] 18.7 µM | [10] 22.3 µM | [11] 22.4 µM | [12] 23.6 µM | [13] 25.5 µM | [14] 19 µM | [15] 18 µM | [16] 29.4 µM

O=C(O)c1c[nH]c2c(ccc3ncccc32)c1=O
inactive: [1] > 100 µM | [17] > 100 µM | [4] > 100 µM | [5] > 100 µM | [18] > 100 µM | [6] > 100 µM | [7] > 100 µM | [8] > 100 µM | [9] > 100 µM | [10] > 100 µM | [11] > 100 µM | [12] > 100 µM | [13] > 100 µM | [14] > 100 µM | [15] > 100 µM | [16] > 100 µM

CN1CCn2c(Br)ccc2C1=O
inactive: [17] > 100 µM | [3] > 100 µM | [4] > 100 µM | [5] > 100 µM | [18] > 100 µM | [7] > 100 µM | [8] > 100 µM | [9] > 100 µM | [10] > 100 µM | [11] > 100 µM | [12] > 100 µM | [13] > 100 µM | [14] > 100 µM | [15] > 100 µM | [16] > 100 µM

O=[N+]([O-])c1ccc(NSc2ccccc2)cc1
inactive: [1] 31.8 µM | [17] 15 µM | [2] 28.7 µM | [4] 20.5 µM | [5] 2.37 µM | [18] 20 µM | [7] 45.6 µM | [8] 24.2 µM | [10] 10.7 µM | [11] 29.7 µM | [12] 19.8 µM | [13] 27.8 µM | [14] 34.8 µM | [15] 42.9 µM | [16] 45.3 µM

O=[N+]([O-])c1ccc(-c2csc(=[N+]3CCCCC3)s2)cc1
inactive: [1] 5.85 µM | [17] > 53.2 µM | [2] 26.1 µM | [4] 36.1 µM | [5] 2.18 µM | [18] > 69.2 µM | [6] 3.61 µM | [7] 4.41 µM | [8] 13.2 µM | [9] 6.04 µM | [10] 11.1 µM | [11] 2.54 µM | [12] 3.48 µM | [13] 4.13 µM | [14] 13.9 µM | [15] 24.9 µM | [16] 36.5 µM

Cc1nc2cc3nc4ccccc4c(O)c3cc2s1
inactive: [1] > 100 µM | [17] > 100 µM | [2] > 100 µM | [3] > 100 µM | [4] > 100 µM | [5] > 100 µM | [18] > 100 µM | [6] > 100 µM | [7] > 100 µM | [8] > 100 µM | [9] > 100 µM | [10] > 100 µM | [11] > 100 µM | [12] > 100 µM | [13] > 100 µM | [14] > 100 µM | [15] > 100 µM
